Assay results published in ChEMBL document CHEMBL3045868, “Synthesis and antibacterial activities of para-alkoxy phenyl--ketoaldehyde derivatives” (Med Chem Res, 2013).
Values after ≈ are worked out from the molar mass of the structure shown.

Legend:
Staphylococcus aureus [1] = experiment: Antibacterial activity against Staphylococcus aureus clinical isolate 17 assessed as growth inhibition at pH 7 after 16 to 18 hr by NCCLS agar dilution method; assay type: functional
Staphylococcus aureus [2] = experiment: Antibacterial activity against Staphylococcus aureus clinical isolate 7 assessed as growth inhibition after 16 to 18 hr by NCCLS agar dilution method; assay type: functional
Staphylococcus aureus [3] = experiment: Bactericidal activity against methicillin-resistant Staphylococcus aureus after 24 hr; assay type: functional
Staphylococcus aureus [4] = experiment: Antibacterial activity against Staphylococcus aureus clinical isolate 24 assessed as growth inhibition at pH 9 after 16 to 18 hr by NCCLS agar dilution method; assay type: functional
[5] = Acute toxicity in KM Mus musculus (mouse) administered through intragastrically measured for 1 week; assay type: organism-based; settings: in vivo, po
Helicobacter pylori [6] = experiment: Antibacterial activity against Helicobacter pylori 06-7 assessed as growth inhibition after 16 to 18 hr NCCLS agar dilution method; assay type: functional
Staphylococcus aureus [7] = experiment: Antibacterial activity against Staphylococcus aureus clinical isolate 8 assessed as growth inhibition at pH 7 after 16 to 18 hr by NCCLS agar dilution method; assay type: functional
Staphylococcus aureus [8] = experiment: Antibacterial activity against Staphylococcus aureus clinical isolate assessed as growth inhibition at pH 5 after 16 to 18 hr by NCCLS agar dilution method; assay type: functional
Staphylococcus aureus [9] = experiment: Bactericidal activity against Staphylococcus aureus clinical isolate 1 after 24 hr; assay type: functional; settings: isolate 1, 24 h
Staphylococcus aureus [10] = experiment: Antibacterial activity against Staphylococcus aureus clinical isolate 24 assessed as growth inhibition at pH 7 after 16 to 18 hr by NCCLS agar dilution method; assay type: functional
Staphylococcus aureus [11] = experiment: Antibacterial activity against Staphylococcus aureus clinical isolate 7 assessed as growth inhibition at pH 5 after 16 to 18 hr by NCCLS agar dilution method; assay type: functional
Staphylococcus aureus [12] = experiment: Antibacterial activity against Staphylococcus aureus clinical isolate 15 assessed as growth inhibition at pH 9 after 16 to 18 hr by NCCLS agar dilution method; assay type: functional
Staphylococcus aureus [13] = experiment: Antibacterial activity against Staphylococcus aureus clinical isolate 2 assessed as growth inhibition at pH 9 after 16 to 18 hr by NCCLS agar dilution method; assay type: functional
Staphylococcus aureus [14] = experiment: Bactericidal activity against Staphylococcus aureus clinical isolate 4 after 24 hr; assay type: functional; settings: isolate 4, 24 h
Staphylococcus aureus [15] = experiment: Antibacterial activity against Staphylococcus aureus clinical isolate 4 assessed as growth inhibition at pH 9 after 16 to 18 hr by NCCLS agar dilution method; assay type: functional
Staphylococcus aureus [16] = experiment: Bactericidal activity against Staphylococcus aureus clinical isolate 5 after 24 hr; assay type: functional; settings: isolate 5, 24 h
Helicobacter pylori [17] = experiment: Antibacterial activity against Helicobacter pylori ATCC 11637 assessed as growth inhibition after 16 to 18 hr NCCLS agar dilution method; assay type: functional
Staphylococcus aureus [18] = experiment: Antibacterial activity against Staphylococcus aureus clinical isolate 18 assessed as growth inhibition at pH 5 after 16 to 18 hr by NCCLS agar dilution method; assay type: functional
Pseudomonas aeruginosa = experiment: Antibacterial activity against Pseudomonas aeruginosa ATCC 27853 assessed as growth inhibition after 16 to 18 hr NCCLS agar dilution method; assay type: functional
Helicobacter pylori [19] = experiment: Antibacterial activity against Helicobacter pylori 06-2 assessed as growth inhibition after 16 to 18 hr NCCLS agar dilution method; assay type: functional
Helicobacter pylori [20] = experiment: Antibacterial activity against Helicobacter pylori 05-2 assessed as growth inhibition after 16 to 18 hr NCCLS agar dilution method; assay type: functional
Staphylococcus aureus [21] = experiment: Antibacterial activity against Staphylococcus aureus clinical isolate 10 assessed as growth inhibition after 16 to 18 hr by NCCLS agar dilution method; assay type: functional
Staphylococcus aureus [22] = experiment: Antibacterial activity against Staphylococcus aureus clinical isolate 20 assessed as growth inhibition at pH 7 after 16 to 18 hr by NCCLS agar dilution method; assay type: functional
Staphylococcus aureus [23] = experiment: Antibacterial activity against Staphylococcus aureus clinical isolate 8 assessed as growth inhibition at pH 9 after 16 to 18 hr by NCCLS agar dilution method; assay type: functional
Staphylococcus aureus [24] = experiment: Antibacterial activity against Staphylococcus aureus clinical isolate 2 assessed as growth inhibition at pH 5 after 16 to 18 hr by NCCLS agar dilution method; assay type: functional
Staphylococcus aureus [25] = experiment: Antibacterial activity against Staphylococcus aureus clinical isolate 22 assessed as growth inhibition at pH 5 after 16 to 18 hr by NCCLS agar dilution method; assay type: functional
Staphylococcus aureus [26] = experiment: Antibacterial activity against Staphylococcus aureus clinical isolate 10 assessed as growth inhibition at pH 9 after 16 to 18 hr by NCCLS agar dilution method; assay type: functional
Staphylococcus aureus [27] = experiment: Antibacterial activity against Staphylococcus aureus clinical isolate 7 assessed as growth inhibition at pH 7 after 16 to 18 hr by NCCLS agar dilution method; assay type: functional
Staphylococcus aureus [28] = experiment: Bactericidal activity against Staphylococcus aureus clinical isolate 10 after 24 hr; assay type: functional; settings: isolate 10, 24 h
Staphylococcus aureus [29] = experiment: Bactericidal activity against methicillin-resistant Staphylococcus aureus isolate 3 after 24 hr; assay type: functional; settings: isolate 3, 24 h
Staphylococcus aureus [30] = experiment: Bactericidal activity against Staphylococcus aureus clinical isolate 7 after 24 hr; assay type: functional; settings: isolate 7, 24 h
Staphylococcus aureus [31] = experiment: Antibacterial activity against Staphylococcus aureus clinical isolate 14 assessed as growth inhibition at pH 7 after 16 to 18 hr by NCCLS agar dilution method; assay type: functional
Staphylococcus aureus [32] = experiment: Antibacterial activity against Staphylococcus aureus clinical isolate 3 assessed as growth inhibition at pH 9 after 16 to 18 hr by NCCLS agar dilution method; assay type: functional
Staphylococcus aureus [33] = experiment: Antibacterial activity against Staphylococcus aureus clinical isolate 19 assessed as growth inhibition at pH 9 after 16 to 18 hr by NCCLS agar dilution method; assay type: functional
Helicobacter pylori [34] = experiment: Antibacterial activity against Helicobacter pylori 05-1 assessed as growth inhibition after 16 to 18 hr NCCLS agar dilution method; assay type: functional
Staphylococcus aureus [35] = experiment: Antibacterial activity against Staphylococcus aureus clinical isolate 17 assessed as growth inhibition at pH 9 after 16 to 18 hr by NCCLS agar dilution method; assay type: functional
Staphylococcus aureus [36] = experiment: Antibacterial activity against methicillin-resistant Staphylococcus aureus isolate 3 assessed as growth inhibition after 16 to 18 hr by NCCLS agar dilution method; assay type: functional
Staphylococcus aureus [37] = experiment: Antibacterial activity against Staphylococcus aureus clinical isolate 15 assessed as growth inhibition at pH 5 after 16 to 18 hr by NCCLS agar dilution method; assay type: functional
Staphylococcus aureus [38] = experiment: Antibacterial activity against Staphylococcus aureus clinical isolate 9 assessed as growth inhibition after 16 to 18 hr by NCCLS agar dilution method; assay type: functional
Staphylococcus aureus [39] = experiment: Antibacterial activity against Staphylococcus aureus clinical isolate 12 assessed as growth inhibition at pH 7 after 16 to 18 hr by NCCLS agar dilution method; assay type: functional
Staphylococcus aureus [40] = experiment: Antibacterial activity against Staphylococcus aureus clinical isolate 5 assessed as growth inhibition at pH 9 after 16 to 18 hr by NCCLS agar dilution method; assay type: functional
Staphylococcus aureus [41] = experiment: Bactericidal activity against Staphylococcus aureus clinical isolate 2 after 24 hr; assay type: functional; settings: isolate 2, 24 h
Staphylococcus aureus [42] = experiment: Antibacterial activity against Staphylococcus aureus clinical isolate 23 assessed as growth inhibition at pH 9 after 16 to 18 hr by NCCLS agar dilution method; assay type: functional
Staphylococcus aureus [43] = experiment: Antibacterial activity against Staphylococcus aureus clinical isolate 11 assessed as growth inhibition at pH 9 after 16 to 18 hr by NCCLS agar dilution method; assay type: functional

CO/N=C/CC(=O)c1ccc(OC)cc1
MIC (Staphylococcus aureus [1]): 16 µg/mL (≈ 77.2 µM)
MIC (Staphylococcus aureus [2]): 8 µg/mL (≈ 38.6 µM)
MBC50 (Staphylococcus aureus [3]): 256 µg/mL (≈ 1240 µM)
MBC90 (Staphylococcus aureus [3]): 256 µg/mL (≈ 1240 µM)
MIC (Staphylococcus aureus [4]): 8 µg/mL (≈ 38.6 µM)
MTD at 168 h [5]: 5000 mg/kg
MIC (Helicobacter pylori [6]): 32 µg/mL (≈ 154 µM)
MIC (Staphylococcus aureus [7]): 16 µg/mL (≈ 77.2 µM)
MIC50 (Staphylococcus aureus [8]): 32 µg/mL (≈ 154 µM)
MIC90 (Staphylococcus aureus [8]): 64 µg/mL (≈ 309 µM)
MBC (Staphylococcus aureus [9]): 128 µg/mL (≈ 618 µM)
MIC (Staphylococcus aureus [10]): 8 µg/mL (≈ 38.6 µM)
MIC (Staphylococcus aureus [11]): 16 µg/mL (≈ 77.2 µM)
MIC (Staphylococcus aureus [12]): 8 µg/mL (≈ 38.6 µM)
MIC (Staphylococcus aureus [13]): 8 µg/mL (≈ 38.6 µM)
MBC (Staphylococcus aureus [14]): 128 µg/mL (≈ 618 µM)
MIC (Staphylococcus aureus [15]): 8 µg/mL (≈ 38.6 µM)
MBC (Staphylococcus aureus [16]): 64 µg/mL (≈ 309 µM)
MIC (Helicobacter pylori [17]): 32 µg/mL (≈ 154 µM)
MIC (Staphylococcus aureus [18]): 32 µg/mL (≈ 154 µM)
MIC (Pseudomonas aeruginosa): > 64 µg/mL
MIC (Helicobacter pylori [19]): 32 µg/mL (≈ 154 µM)
MIC (Helicobacter pylori [20]): 16 µg/mL (≈ 77.2 µM)
MIC (Staphylococcus aureus [21]): 16 µg/mL (≈ 77.2 µM)
MIC (Staphylococcus aureus [22]): 16 µg/mL (≈ 77.2 µM)
MIC (Staphylococcus aureus [23]): 8 µg/mL (≈ 38.6 µM)
MIC (Staphylococcus aureus [24]): 32 µg/mL (≈ 154 µM)
MIC (Staphylococcus aureus [25]): 16 µg/mL (≈ 77.2 µM)
MIC (Staphylococcus aureus [26]): 8 µg/mL (≈ 38.6 µM)
MIC (Staphylococcus aureus [27]): 8 µg/mL (≈ 38.6 µM)
MBC (Staphylococcus aureus [28]): > 128 µg/mL
MBC (Staphylococcus aureus [29]): 256 µg/mL (≈ 1240 µM)
MBC (Staphylococcus aureus [30]): 128 µg/mL (≈ 618 µM)
MIC (Staphylococcus aureus [31]): 16 µg/mL (≈ 77.2 µM)
MIC (Staphylococcus aureus [32]): 8 µg/mL (≈ 38.6 µM)
MIC (Staphylococcus aureus [33]): 16 µg/mL (≈ 77.2 µM)
MIC (Helicobacter pylori [34]): 32 µg/mL (≈ 154 µM)
MIC (Staphylococcus aureus [35]): 16 µg/mL (≈ 77.2 µM)
MIC (Staphylococcus aureus [36]): 8 µg/mL (≈ 38.6 µM)
MIC (Staphylococcus aureus [37]): 16 µg/mL (≈ 77.2 µM)
MIC (Staphylococcus aureus [38]): 16 µg/mL (≈ 77.2 µM)
MIC (Staphylococcus aureus [39]): 32 µg/mL (≈ 154 µM)
MIC (Staphylococcus aureus [40]): 8 µg/mL (≈ 38.6 µM)
MBC (Staphylococcus aureus [41]): 64 µg/mL (≈ 309 µM)
MIC (Staphylococcus aureus [42]): 8 µg/mL (≈ 38.6 µM)
MIC (Staphylococcus aureus [43]): 8 µg/mL (≈ 38.6 µM)
